Source: patent US20050238727A1, “Coadministration of radiation, efaproxiral sodium, and supplemental oxygen for the treatment of cancer” (priority 2004, published 2005)

Key:
Format in all cases: in vivo, human
[1] = tested on: brain metastases; assay: Survival of patients with brain metastases given efaproxiral sodium + WBRT + supplemental oxygen (controlled study RT-009)
Procedure: Patients with brain metastases were administered efaproxiral sodium in a total dose of 0-100 mg/kg per day based on the dosing guidelines detailed above. In general, efaproxiral sodium is administered by intravenous infusion through a central venous access device over 30 minutes at a dose of 75 or 100 mg/kg daily with concurrent supplemental oxygen. Oxygen must be administered at 4 L/min via nasal cannula or facemask beginning 5 minutes prior to initiation of infusion, during infusion and WBRT, and for at least 15 minutes after completion of daily WBRT. Efaproxiral sodium is administered every day of a fractionated course of WBRT. Except when contraindicated, WBRT must be administered within 30 minutes of the end of the efaproxiral sodium infusion. The patients were given the drug in one dose. Efaproxiral sodium was administered via central venous access with flow rate controlled by volumetric pump over a 30-45 minute interval with end-infusion no longer than 30 minutes prior to each radiation dose of a 10-day course of WBRT. Efaproxiral sodium was formulated as a sterile solution for injection and was supplied in single-use glass bottles containing 10 g efaproxiral sodium in 500 mL of 0.225% NaCl at a concentration of 20 mg/mL. Efaproxiral sodium was administered during the 10-day course of WBRT, for a maximum of 10 doses. A control group received radiation and supplemental oxygen only. Supplemental oxygen is administered at about 4 L/min via nasal cannula beginning about 5 minutes prior to initiation of infusion, during infusion and WBRT, and for at least about 15 minutes after completion of daily WBRT. If the desired SpO2 of greater than or equal to 90% while breathing room air is not achieved, supplemental oxygen is to be continued and increased to a flow of 6-8 L/min, if necessary, until the SpO2 while breathing room air is stabilized at greater than or equal to 90%. Plasma and red blood cell (RBC) drug concentration were assayed on 2 days during the course of efaproxiral sodium administration: WBRT day 1 (end-infusion) and on 1 single day between WBRT days 6 and 10 (pre-infusion and end-infusion assays). Regression analysis was used to explore the relationship between trough and peak concentrations and continuous clinical covariates (eg, age, serum albumin, hematocrit, serum creatinine, etc). […] A dose of efaproxiral sodium was considered predicatably therapeutic if it achieved a sufficient, RBC concentration (>483 μg/ml), and corresponded to a predicted p50 shift of 10 mmHg. One measurement of efficacy is the survival in the total patient population. For eligible patients, the observed mean survival time for the control group was 4.37 months as compared to 5.39 months for the efaproxiral sodium treated group.

[2] = Treatment-emergent adverse events in the controlled study
Procedure: Patients with brain metastases were administered efaproxiral sodium in a total dose of 0-100 mg/kg per day based on the dosing guidelines detailed above. In general, efaproxiral sodium is administered by intravenous infusion through a central venous access device over 30 minutes at a dose of 75 or 100 mg/kg daily with concurrent supplemental oxygen. Oxygen must be administered at 4 L/min via nasal cannula or facemask beginning 5 minutes prior to initiation of infusion, during infusion and WBRT, and for at least 15 minutes after completion of daily WBRT. Efaproxiral sodium is administered every day of a fractionated course of WBRT. Except when contraindicated, WBRT must be administered within 30 minutes of the end of the efaproxiral sodium infusion.
The patients were given the drug in one dose. Efaproxiral sodium was administered via central venous access with flow rate controlled by volumetric pump over a 30-45 minute interval with end-infusion no longer than 30 minutes prior to each radiation dose of a 10-day course of WBRT. Efaproxiral sodium was formulated as a sterile solution for injection and was supplied in single-use glass bottles containing 10 g efaproxiral sodium in 500 mL of 0.225% NaCl at a concentration of 20 mg/mL. Efaproxiral sodium was administered during the 10-day course of WBRT, for a maximum of 10 doses. A control group received radiation and supplemental oxygen only.
The majority of treatment-emergent adverse events were Grade 1 or 2 in severity, resolved spontaneously or within the duration of the study, and responded well to concomitant treatment with antiemetics for nausea/vomiting, nonsteroidal anti-inflammatory drugs for headache, supplemental oxygen for hypoxemia. […] Muscle weakness and dyspnea (reported in 3% of patients ) were the most commonly reported Grade 3 adverse events in Control patients and both events were reported as a Grade 4 event in 1 patient each. The most commonly reported Grade 4 adverse event in both treatment and control groups was disease progression (reported in 6% of both groups).

[3] = Plasma and red blood cell (RBC) drug concentration during efaproxiral sodium administration
Procedure: Plasma and red blood cell (RBC) drug concentration were assayed on 2 days during the course of efaproxiral sodium administration: WBRT day 1 (end-infusion) and on 1 single day between WBRT days 6 and 10 (pre-infusion and end-infusion assays). Regression analysis was used to explore the relationship between trough and peak concentrations and continuous clinical covariates (eg, age, serum albumin, hematocrit, serum creatinine, etc). […] A dose of efaproxiral sodium was considered predicatably therapeutic if it achieved a sufficient, RBC concentration (>483 μg/ml), and corresponded to a predicted p50 shift of 10 mmHg.

[4] = tested on: brain metastases; assay: Radiographic response of brain metastases (contrast enhanced MRI or CT, blinded central review)
Text: Radiographic progression is defined by radiographic criteria only, based on a blinded central review. Determination of radiographic tumor progression in the brain was based on contrast enhanced MRI or CT scans taken at screening and compared to follow-up scans taken 1 month after the end of WBRT, 3 months after the end of WBRT, and every 3 months thereafter until death. Maximum bi-dimensional measurements (x=transverse, y=antero-posterior) were used to compute the bi-dimensional product and for determination of response and radiographic progression. Time to radiographic tumor progression in the brain was reported by means of Kaplan-Meier estimates. Gray's test (Gray R. A class of K-sample tests for comparing the cumulative incidence of a competing risk. Annals of Statistics […];16:1141-1154) was used to compare cumulative incidence between treatment and control groups. Potential competing risks for radiographic progression in the brain included death without progression and loss to follow-up. The date of tumor progression is defined as the date of radiographic documentation that any treated lesion in the brain is enlarged by more than 25% in the bi-dimensional product. The reference to “any treated lesion” mans that the lesion was present prior to RT.

[5] = Quality of life: Karnofsky Performance Status (KPS); settings: for patients with stable or improving KPS scores: all randomized patients, N = 271
Procedure: (§1) Quality of life was determined by means of the Spitzer Questionnaire (SQ) and Kamofsky Performance Status (KPS) assessment. The tests were performed at baseline, at WBRT day 10, and at all routine follow-up visits. A sustained drop in the KPS score to less than 60 was defined as a significant drop. The 5 questions comprising the Spitzer Questionnaire were weighted evenly. For each evaluation with at least 3 out of 5 questions answered, an average score was computed for each patient. Questionnaires with fewer than 3 questions answered were treated as missing data. The protocol specified a sustained drop in the Spitzer Questionnaire score of 2 points constituted a significant drop.

[6] = Quality of life: Spitzer Questionnaire (SQ); settings: all randomized patients, N = 271
Procedure: as §1

[7] = Resaturation time / supplemental oxygen requirement after efaproxiral sodium plus WBRT; settings: majority of doses; patients with brain metastases from breast cancer
Procedure: Depending upon an individual patient's resaturation time (time required to recover to a stable≧90% SpO2 on room air) following efaproxiral sodium plus WBRT, supplemental oxygen use may be required for as little as 30 minutes to more than 4 hours. […] During this period of decreased oxygen saturation, patients require continuous SpO2 monitoring. If the desired SpO2 of≧90% while breathing room air is not achieved, supplemental oxygen is to be continued and increased to a flow of 6-8 L/min, if necessary, until the SpO2 while breathing room air is stabilized at≧90%.

## Cc1cc(C)cc(NC(=O)Cc2ccc(OC(C)(C)C(=O)O)cc2)c1 [efaproxiral sodium, 2-[4-(((3,5-dimethylanilino)carbonyl)methyl)phenoxy]-2-methylpropionic acid]
[1]; All patients, <7 efaproxiral sodium doses
  MST (median survival time): 2.96 (53)
[1]; All patients, ≧7 efaproxiral sodium doses, <7 successful (RBC >483 μg/ml)
  MST (median survival time): 4.93 (118)
[1]; All patients, ≧7 efaproxiral sodium doses, ≧7 successful (RBC >483 μg/ml), p 0.001 vs Control
  MST (median survival time): 6.90 (100) 0.001
[1]; Breast patients, <7 efaproxiral sodium doses
  MST (median survival time): 3.52 (13)
[1]; Breast patients, ≧7 efaproxiral sodium doses, <7 successful
  MST (median survival time): 7.33 (22)
[1]; Breast patients, ≧7 efaproxiral sodium doses, ≧7 successful, p 0.0002 vs Control
  MST (median survival time): 25.72 (25) 0.0002
[1]; NSCLC patients, <7 efaproxiral sodium doses
  MST (median survival time): 2.71 (30)
[1]; NSCLC patients, ≧7 efaproxiral sodium doses, <7 successful
  MST (median survival time): 4.73 (65)
[1]; NSCLC patients, ≧7 efaproxiral sodium doses, ≧7 successful, p 0.0011 vs Control
  MST (median survival time): 6.83 (53) 0.0011
[1]; eligible patients, control group 4.37 months
  observed mean survival time: 5.39 months
[1]; patients with breast as site of primary, p=0.0061
  HR, survival distribution function, treatment versus control: 0.552
[2]; controlled study
  severity of the majority of treatment-emergent adverse events: Grade 1 or 2
[2]; efaproxiral sodium-treated patients
  Grade 4 hypoxemia: no Grade 4 hypoxemia was reported
[2]; efaproxiral sodium-treated patients, most commonly reported Grade 3 adverse event
  Grade 3 hypoxemia, patients reporting: 11%
[2]; most commonly reported Grade 4 adverse event, same in control group
  Grade 4 disease progression, patients reporting: 6%
[3]; WBRT week 2 preinfusion concentrations in RBCs
  drug accumulation: No clinically relevant drug accumulation occurred
[3]; at RBC concentration >483 μg/ml
  predicted p50 shift: 10 mmHg
[3]; patients dosed at 75 or 100 mg/kg
  change of concentration in RBCs with dose: proportional increase
[4]; all randomized patients, 95% CI −0.4%-16.3%, p=0.0609
  estimated increase in radiographic response rate compared to Control: 7.9%
[4]; breast primary patients, p=0.0209
  treatment effect for predicting response (logistic multiple regression): statistically significant
[5]; 1 month
  patients with stable or improving KPS scores: 119 (44) n (%)
[5]; 3 months
  patients with stable or improving KPS scores: 64 (24) n (%)
[5]; 6 months
  patients with stable or improving KPS scores: 49 (18) n (%)
[5]; 12 months
  patients with stable or improving KPS scores: 19 (7) n (%)
[5]; breast primary patients, 6 months and 1 year (p=0.0046 and p=0.0070)
  distribution of KPS score categories between treatment groups: statistically significant difference
[6]; 1 month
  patients with stable or improving SQ scores: 115 (42) n (%)
[6]; 3 months
  patients with stable or improving SQ scores: 62 (23) n (%)
[6]; 6 months
  patients with stable or improving SQ scores: 43 (16) n (%)
[6]; 12 months
  patients with stable or improving SQ scores: 24 (9) n (%)
[7]
  supplemental oxygen required after completion of WBRT: one
